# Test results from patent publication US10188629B2, “Prodrug of green tea epigallocatechin-3-gallate (pro-EGCG) for use in the treatment of endometriosis” (The Hong Kong Polytechnic University, priority 2012, dated 2019).
# What was measured:
# Assay type in all cases: in vivo, mice
# [1] = tested on: endometriotic lesions (experimental endometriosis); experiment: Growth of luminescent endometriotic lesions monitored weekly by IVIS bioluminescence imaging
# From the text: Based on our previous study, an immune-compromised mouse model of experimental endometriosis was created by subcutaneous transplantation of human or mouse tissues to assess the anti-angiogenic effects and mechanisms of green tea catechin (Xu H, et al. Hum Reprod 2009; 24:608-18; Xu H, et al. Fertil Steril 2011; 96:1021-8).
# (§1) In this study, endometrial tissues from eight-week-old female CMV-Luc mice (n=15) were acquired for transplantation into nonluminescent NOD-SCID mice (n=32). The mouse endometrium was obtained during the proliferating estrous stage, and biopsies 2 mm in diameter were obtained with a sterile dermal biopsy punch (Miltex, NY). The biopsies were immediately washed in prewarmed, phenol-red-free DMEM/F-12 medium (Sigma) to remove residual blood and mucus, and the samples were maintained in serum-free DMEM/F-12 medium before transplantation (Bruner-Tran K L, et al. J Clin Endocrinol Metab 2009; 94:2489-94). Cultured endometrial biopsies were randomly allocated for transplantation.
# (§2) Five mouse endometrial biopsies per treatment group were implanted into a single subcutaneous pocket created is the abdominal wall of the mice along the ventral midline immediately below the umbilicus. All of the surgical procedures were performed under general anesthesia with isoflurane (Baxter, IL), and the mice were monitored until they fully recovered.
# Development and angiogenesis of the experimental endometriosis were monitored using various in vivo imaging systems. During the intervention, growth of the endometriotic lesions (n=8 per group) was monitored each week by measuring the bioluminescence of the subcutaneous luciferase-positive implants using a non-invasive IVIS 200 live animal imaging system (Xenogen) as previously described (Song C, et al. Hum Gene Ther, 2011; 22:439-49). A total of 150 mg/kg of luciferin was injected intraperitoneally […] 10 mins prior to imaging. An image from each animal was captured at bin size 4 in triplicate, and the bioluminescence signal intensities were averaged for comparison.
# [2] = tested on: endometriotic lesions (experimental endometriosis); experiment: Lesion size, weight and histology at end of intervention; details: after 4 weeks i.p. once per day
# From the text: as §1, §2
# At the end of intervention, size of the endometriotic lesions was determined as the longest length and perpendicular width according to a venire caliper and was calculated as 0.52×width^2×length in mm^3. The endometrial implants, together with subcutaneous and muscle layers, were removed from the abdomen wall for detailed histological examination and specific staining analysis.
# (§3) Paraffin sections (n=4 per group) were prepared for standard hematoxylin and eosin (H&E) staining, angiogenesis immunostaining and TUNEL staining as previously described (Xu H, et al. Hum Reprod 2009; 24:608-18.). Immunohistochemistry staining of in situ angiogenesis was performed by the immunoperoxidase method using a MACH 3 HRP Polymer Kit (Biocare Medical, Concord), and counterstained using methyl green or blue solution.
# [3] = tested on: microvessels in the endometriotic lesions; experiment: Angiogenesis of endometriotic lesions by Cellvizio, microCT and CD31/αSMA immunostaining; details: after 4 weeks
# Procedure: (§4) At the end of intervention, functional angiogenesis of the endometriotic lesions (n=8 per group) was monitored by measuring the flow of fluorescence dye in the new microvessels developed in the implants using a Cellvizio® LAB LSU-488 system with a ProFlex Microprobe S1500 (Mauna Kea Technologies, Paris) as previously described (Xu H, et al. Fertil Steril 2011; 96:1021-8.). A total of 10 mg/ml of FITC-Dextran was injected intravenously into each mouse prior to imaging. Total vessel length (μm) and area (μm^2) and functional capillary length (μm^−1) and area density were measured using Cellvizio® LAB Vessel Detection software, and averaged from 4 perpendicular regions of the lesions in replicates. At the same time, apoptotic cells in the lesions were captured by Cellvizio-LAB 488 with a ProFlex MiniO/100 microprobe using Cellvizio® LAB I/C Viewer software (Mauna Kea Technologies). A total of 10 μl of 10 μM YO-PRO®-1 iodide in DSMO was injected into the lesion area.
# After live animal imaging, structural angiogenesis in the endometriotic lesions (n=4 per group) was further examined by detecting the Microfil in the new microvessels developed in the implants using a VivaCT 40 μCT system (Scanco Medical, Switzerland) as previously described (Sun M H, et al. J Orthop Res. 2012; 30:137-43.). The mice were sacrificed by cervical dislocation and where immediately perfused with 4% paraformaldehyde and Microfil MV-120 Blue. Three-dimensional microvessel architecture was constructed, and absolute and relative Microfil-filled microvessel volumes were determined using the built-in software.
# as §3
# Antibodies against mouse CD31 and alpha-smooth muscle actin (αSMA) (Abcam Inc., MA) were used to double fluorescence stain the microvessels developed in the endometriotic lesions, and CD34 (Abeam Inc.) was used to stain the microvessels in the ovaries and uterus. The samples without primary antibodies served as negative controls. The total number of positively stained new and old microvessels in the lesions was counted, respectively. The mean microvessel numbers and sizes were calculated from 5 separated sections from each animal within the treatment group and are presented as numbers per lesion and μm^2 per lesion, respectively.
# [4] = tested on: apoptotic cells in the endometriotic lesions; experiment: Apoptosis in endometriotic lesions by Cellvizio YO-PRO-1 imaging and TUNEL staining; details: after 4 weeks
# Procedure: as §4
# The total number of apoptotic cells was counted and averaged from the 4 perpendicular regions of the lesions in replicates as described above. Both IVIS and Cellvizio imaging procedures were performed under general anesthesia with isoflurane (Baxter, Ill.), and the mice were observed until fully recovered.
# TUNEL labeling for in situ apoptotic cells was performed using an ApopTag Peroxidase In Situ Apoptosis Detection Kit (Temecula, Calif.) according to the manufacturer's instructions. The total numbers of TUNEL-positive stained cells were counted. The mean numbers of apoptotic cells were calculated from 5 separated sections from each animal within the treatment group and are presented as numbers per lesion as above. […] Each section was evaluated by both examiners, who were blinded to the experimental groups and results.
# [5] = Oxygen radical absorbance capacity (ORAC) in plasma and lesions
# From the text: (§5) Pharmacokinetics of EGCG and pro-EGCG in the animals were studied by measuring the corresponding EGCG and pro-EGCG concentrations (EGCG in the EGCG group, pro-EGCG in the pro-EGCG group) in plasma during the intervention and also in lesions at the end of intervention. EGCG and pro-EGCG were quantified by analytical methods as previously described (Lam W H, et al. Bioorg Med Chem. 2004; 510:69-93; Chu K O, et al. J Chromat B 2004; 810:187-95; Chu K O, et al. Anal Chim Acta 2004; 510:69-76). Anti-oxidative and anti-angiogenesis capacities of the samples were also studied by measuring oxygen radical absorbance capacity (ORAC) using a modified phycoerythrin fluorescence decay assay as previously described (Wang C C, et al. Clin Chem 2004; 50:952-4), and vascular endothelial growth factor (VEGF) concentrations were measured using a commercial ELISA kit (Uscn Life Science Inc., TX) according to the manufacturer's manual. Blood samples (n=8 per group) were collected from the tail vein once per week, and plasma was prepared by immediate centrifugation. Implants without subcutaneous and muscle layers (n=4 per group) were removed from the abdominal wall, and the endometriotic lesions were frozen. All of the samples were kept in −80° C. prior to analysis.
# [6] = tested on: vascular endothelial growth factor (VEGF); experiment: VEGF concentrations in plasma and lesions by ELISA
# From the text: as §5
# [7] = EGCG, pro-EGCG 50 mg/kg, vitamin E 20 mg/kg
substance,measurement,setting,value
vitamin E,lesion bioluminescence intensity compared with saline group,"[1]; i.p. once per day, 4 weeks, EGCG, pro-EGCG 50 mg/kg, vitamin E 20 mg/kg",significantly lower than that of the saline group at the 3rd week
same,lesion growth (bioluminescence) at the 4th week compared with saline group,"[1]; vitamin E 20 mg/kg i.p. once per day, 4th week","returned to normal growth, as in the saline group"
same,lesion size compared to control group,[2]; [7],did not significantly decrease
same,lesion weight compared to control group,[2]; [7],did not significantly decrease
same,development and histology of the endometriotic lesions,[2]; microscopic examination,a large cyst-like endometrial gland structure was formed
same,"functional capillary length, density and area in the lesions compared to saline group","[3]; Cellvizio, FITC-Dextran","but not vitamin E, significantly inhibited"
same,total vessel length in the lesions compared to saline group,"[3]; Cellvizio, FITC-Dextran","but not vitamin E, significantly inhibited"
same,CD31-positively and αSMA-positively stained old microvessel numbers compared to saline group,[3]; immunostaining,"but not vitamin E, significantly inhibited"
same,vessel volume and density in the lesions compared to saline group,"[3]; microCT, Microfil","but not vitamin E, significantly inhibited"
same,total apoptotic cell numbers in the lesions compared to saline group,[4],but not vitamin E significantly increased
same,ORAC in endometriotic lesions compared to saline group,[5]; lesions after intervention,significantly increased
same,ORAC in plasma compared to saline group,[5]; plasma during intervention,significantly increased
same,VEGF concentrations in endometriotic lesions compared to saline group,[6]; lesions after intervention,not significantly different from the saline group
same,VEGF concentrations in plasma compared to saline group,[6]; plasma during intervention,not significantly different from the saline group
